For the assay, the system named is IRF pathway in THP1-Dual™ cells, THP-1 (HAQ). The assay can be described thus: Reporter gene expression assay in THP-1 cells (THP1-Dual, IRF pathway Lucia luciferase reporter, 2′,3′-cGAMP stimulation). The conditions noted are these: Homo sapiens; THP1-Dual cells preincubated with compound 10 minutes, stimulation with 5 μM 2′,3′-cGAMP for 20 hr, QUANTI-Luc readout of the supernatant; read-out: THP-1 (HAQ) Activity (IC50 value range). It is filed as cell-based, human. As for the experimental part:
Reporter Gene Expression Assay in THP-1 Cells
THP1-Dual™ cells (Invivogen) were derived from the human THP-1 monocyte cell line by stable integration of two inducible reporter constructs. As a result, THP1-Dual™ cells allow the simultaneous study of the IRF pathway, by assessing the activity of a secreted luciferase (Lucia) and the NF-κB pathway, by monitoring the activity of secreted SEAP. 5×10^4 THP1-Dual™ cells were seeded in 384-well plates in growth medium and preincubated with novel compounds for 10 minutes followed by stimulation with 5 μM 2′,3′-cGAMP. After 20 hr of stimulation the supernatant was removed and the IRF pathway reporter protein was readily measured in the cell culture supernatant using QUANTI-Luc™ (Invivogen), a luciferase detection reagent on a Spectramax i3X luminometer.

These results are taken from US20260159511A1, “SMALL MOLECULE STING ANTAGONISTS” (CURADEV PHARMA PVT. LTD., priority 2021, published 2026).

Regarding `O=C(Nc1ccc2c(c1)N(Cc1ccccc1)C(=O)CS2)Nc1c[nH]c2ccc(F)cc12` [Example 1, 1-(4-benzyl-3-oxo-3,4-dihydro-2H-benzo[b][1,4]thiazin-6-yl)-3-(5-fluoro-1H-indol-3-yl)urea], the half-maximal inhibitory concentration (IC50) was below 1000 nM.
For the compound `O=C(Nc1ccc2c(c1)OCC(=O)N2Cc1c(F)cccc1Cl)Nc1c[nH]c2ccccc12` [Example 2, 1-(4-(2-Chloro-6-fluorobenzyl)-3-oxo-3,4-dihydro-2H-benzo[b][1,4]oxazin-7-yl)-3-(1H-indol-3-yl)urea], the IC50 is below 1000 nM.
The figure for `O=C(Nc1ccc2c(c1)OCC(=O)N2Cc1ccccc1)Nc1c[nH]c2ccccc12` [Example 3, 1-(4-benzyl-3-oxo-3,4-dihydro-2H-benzo[b][1,4]oxazin-7-yl)-3-(1H-indol-3-yl)urea] is below 1000 nM.
Consider `O=C(Nc1ccc2c(c1)N(Cc1ccccc1)C(=O)CO2)Nc1c[nH]c2ccccc12` [Example 4, 1-(4-benzyl-3-oxo-3,4-dihydro-2H-benzo[b][1,4]oxazin-6-yl)-3-(1H-indol-3-yl)urea], for which the IC50 is below 1000 nM.
With `O=C(Nc1ccc2c(c1)N(Cc1ccccc1)C(=O)CS2)Nc1c[nH]c2ncc(Cl)cc12` [Example 5, 1-(4-benzyl-3-oxo-3,4-dihydro-2H-benzo[b][1,4]thiazin-6-yl)-3-(5-chloro-1H-pyrrolo[2,3-b]pyridin-3-yl)urea], the IC50 is below 1000 nM.
For `O=C(Nc1ccc2c(c1)N(Cc1ccccc1)C(=O)CS2)Nc1c[nH]c2ncc(Br)cc12` [Example 6, 1-(4-benzyl-3-oxo-3,4-dihydro-2H-benzo[b][1,4]thiazin-6-yl)-3-(5-bromo-1H-pyrrolo[2,3-b]pyridin-3-yl)urea], the IC50 was below 1000 nM.
On to `O=C(Nc1ccc2c(c1)SCC(=O)N2Cc1ccccc1)Nc1c[nH]c2ccccc12` [Example 7, 1-(4-benzyl-3-oxo-3,4-dihydro-2H-benzo[b][1,4]thiazin-7-yl)-3-(1H-indol-3-yl)urea], for which the IC50 is below 1000 nM.
Consider `O=C(Nc1ccc2c(c1)N(Cc1c(F)cccc1Cl)C(=O)CO2)Nc1c[nH]c2ccccc12` [Example 8, 1-(4-(2-chloro-6-fluorobenzyl)-3-oxo-3,4-dihydro-2H-benzo[b][1,4]oxazin-6-yl)-3-(1H-indol-3-yl)urea], for which the IC50 is below 1000 nM.
As for `Cc1[nH]c2ccccc2c1NC(=O)Nc1ccc2c(c1)N(Cc1ccccc1)C(=O)CS2` [Example 9, 1-(4-benzyl-3-oxo-3,4-dihydro-2H-benzo[b][1,4]thiazin-6-yl)-3-(2-methyl-1H-indol-3-yl)urea], the figure is 1000 to 10000 nM; as for `O=C(Nc1ccc2c(c1)N(Cc1ccccc1)C(=O)CS2)Nc1c[nH]c2ccc(Cl)cc12` [Example 10, 1-(4-benzyl-3-oxo-3,4-dihydro-2H-benzo[b][1,4]thiazin-6-yl)-3-(5-chloro-1H-indol-3-yl)urea], below 1000 nM; as for `O=C(Nc1ccc2c(c1)N(Cc1c(F)cccc1Cl)C(=O)CS2)Nc1c[nH]c2ccccc12` [Example 11, 1-(4-(2-chloro-6-fluorobenzyl)-3-oxo-3,4-dihydro-2H-benzo[b][1,4]thiazin-6-yl)-3-(1H-indol-3-yl)urea], below 1000 nM.
As for `O=C(Nc1ccc2c(c1)SCC(=O)N2Cc1c(F)cccc1Cl)Nc1c[nH]c2ccccc12` [Example 12, 1-(4-(2-chloro-6-fluorobenzyl)-3-oxo-3,4-dihydro-2H-benzo[b][1,4]thiazin-7-yl)-3-(1H-indol-3-yl)urea], the figure is below 1000 nM; as for `O=C(Nc1ccc2c(c1)N(Cc1ccccc1)C(=O)CS2)Nc1c[nH]c2ncccc12` [Example 13, 1-(4-benzyl-3-oxo-3,4-dihydro-2H-benzo[b][1,4]thiazin-6-yl)-3-(1H-pyrrolo[2,3-b]pyridin-3-yl)urea], below 1000 nM.
The figure for `O=C(Nc1ccc2c(c1)N(Cc1ccccc1)C(=O)CS2)Nc1c[nH]c2ccncc12` [Example 14, 1-(4-benzyl-3-oxo-3,4-dihydro-2H-benzo[b][1,4]thiazin-6-yl)-3-(1H-pyrrolo[3,2-c]pyridin-3-yl)urea] is 1000 to 10000 nM.
